According to patent EP2826473A1, “NOVEL USE OF PATCHOULOL” (Chengdu Huasun Group Inc., Ltd., priority 2012, dated 2013):
In brackets after ≈: the same amount, converted by molar mass.

What was measured:
[1] = tested on: Staphylococcus aureus MRSA; assay: in vitro bacteriostatic activity, agar dilution MIC; format: cell-based
Enterococcus faecalis = assay: as above; format: cell-based; settings: Enterococcus faecalis
[2] = tested on: Staphylococcus epidermidis MRSE; assay: as above; format: cell-based
[3] = tested on: Staphylococcus epidermidis MSSE; assay: as above; format: cell-based; settings: Staphylococcus epidermidis
[4] = tested on: Staphylococcus aureus MSSA; assay: as above; format: cell-based
[5] = tested on: Methicillin-resistant Staphylococcus aureus ATCC 43300; assay: in vivo protection of model mice infected with methicillin-resistant Staphylococcus aureus; parameters: species or system KM mice; settings: 4×10^5 units/kg, intraperitoneal injection once a day, within 14 days
Experimental: Tested strains' virulence assay: Methicillin-resistant Staphylococcus aureus was cultured in incubator at 37°C to reach exponential phase of growth, and then diluted with normal saline to obtain different gradient concentrations of bacterial liquid. Different concentrations of bacterial liquid were taken and mixed with equivalent 10% gastric mucin. Bacterial liquid was administrated to mice at 0.5 ml/20 g by intraperitoneal injection, and 5% gastric mucin was used as control. Under a premise of no control mice death, the death rate of mice within 14 days was recorded, and the minimum bacterial volumes leading to death of whole mice were measured, i.e. the minimum lethal dose (MLD) of bacterial liquid.
Pretesting of effective dose in vivo: Infection model mice infected by Methicillin-resistant Staphylococcus aureus were randomly divided into a few of groups (four mice per group), and a graded dose of each bacterial liquid was separately administrated to mice in each test group at one time per day. Moreover, administration of test drug was done one day ahead of schedule, and toxic substances were not eliminated until 0.5 h after administration on the second day. The death status of mice within 14 days was observed, to determine the dosage used in the formal experiment.
KM mice (grade SPF), half male and half female, weighing 18-22 g were randomly divided into […] groups with ten mice for each group, i.e. the group receiving vancomycin hydrochloride for injection; the groups receiving high, medium, and low doses of patchoulol; blank group; model group; and control group receiving gastric mucin. All of the mice were administrated by intraperitoneal injection once a day. The mice were administrated one day in advance and then attacked after 0.5h of administration on the second day, i.e. intraperitoneally injected with methicillin-resistant Staphylococcus aureus liquid containing 5% gastric mucin. Amongst, mice in the model group were given normal saline instead of test drug; mice in the blank group were not given drugs and attacked; mice in the gastric mucin control group were not given test drug, but only injected with 5% gastric mucin without bacteria.
The death status of mice within 14 days after injection of bacteria was observed, and its survival rate was recorded.

Enterococcus faecium = assay: in vitro bacteriostatic activity, agar dilution MIC; format: cell-based; settings: Enterococcus faecium
[6] = tested on: Staphylococcus epidermidis ATCC 12228; assay: in vitro bacteriostatic activity, agar dilution MIC, quality control strain; format: cell-based; settings: Staphylococcus epidermidis, ATCC12228
Staphylococcus aureus = assay: in vitro bacteriostatic activity, agar dilution MIC, quality control strains; format: cell-based; settings: Staphylococcus aureus, ATCC29213

`CN[C@H](CC(C)C)C(=O)N[C@H]1C(=O)N[C@@H](CC(N)=O)C(=O)N[C@H]2C(=O)N[C@H]3C(=O)N[C@H](C(=O)N[C@H](C(=O)O)c4cc(O)cc(O)c4-c4cc3ccc4O)[C@H](O)c3ccc(c(Cl)c3)Oc3cc2cc(c3O[C@@H]2O[C@H](CO)[C@@H](O)[C@H](O)[C@H]2O[C@H]2C[C@](C)(N)[C@H](O)[C@H](C)O2)Oc2ccc(cc2Cl)[C@H]1O` [vancomycin] showed an MIC ([1]; ATCC 43300 / MRSA, Methicillin-resistant Staphylococcus aureus ATCC 43300) of 1 µg/mL (≈ 0.69 µM), an MIC ([1]; MRSA, Staphylococcus aureus MRSA 12-11) of 2 µg/mL (≈ 1.38 µM) and an MIC ([1]; MRSA, Staphylococcus aureus MRSA 12-12) of 1 µg/mL (≈ 0.69 µM). The MIC ([1]; MRSA, Staphylococcus aureus MRSA 12-13) was 1 µg/mL (≈ 0.69 µM), the MIC ([1]; MRSA, Staphylococcus aureus MRSA 12-14) was 1 µg/mL (≈ 0.69 µM) and the MIC ([1]; MRSA, Staphylococcus aureus MRSA 12-15) was 1 µg/mL (≈ 0.69 µM). The MIC ([1]; MRSA, Staphylococcus aureus MRSA 12-16) was 2 µg/mL (≈ 1.38 µM), the MIC ([1]; MRSA, Staphylococcus aureus MRSA 12-17) was 1 µg/mL (≈ 0.69 µM) and the MIC ([1]; MRSA, Staphylococcus aureus MRSA 12-18) was 1 µg/mL (≈ 0.69 µM). The MIC ([1]; MRSA, Staphylococcus aureus MRSA 12-19) was 2 µg/mL (≈ 1.38 µM), the MIC ([1]; MRSA, Staphylococcus aureus MRSA 12-20) was 1 µg/mL (≈ 0.69 µM) and the MIC (Enterococcus faecalis; ATCC29212, Enterococcus faecalis ATCC 29212) was 2 µg/mL (≈ 1.38 µM). The MIC (Enterococcus faecalis; ATCC51299, Enterococcus faecalis (high endurance) ATCC 51299) was 2 µg/mL (≈ 1.38 µM), the MIC (Enterococcus faecalis; Enterococcus faecalis 12-11) was greater than 128 µg/mL and the MIC (Enterococcus faecalis; Enterococcus faecalis 12-12) was 1 µg/mL (≈ 0.69 µM). The MIC (Enterococcus faecalis; Enterococcus faecalis 12-13) was 2 µg/mL (≈ 1.38 µM), the MIC (Enterococcus faecalis; Enterococcus faecalis 12-14) was 1 µg/mL (≈ 0.69 µM) and the MIC (Enterococcus faecalis; Enterococcus faecalis 12-17) was 2 µg/mL (≈ 1.38 µM). For the same compound, the MIC (Enterococcus faecalis; Enterococcus faecalis 12-18) was 1 µg/mL (≈ 0.69 µM), the MIC (Enterococcus faecalis; Enterococcus faecalis 12-19) was 2 µg/mL (≈ 1.38 µM) and the MIC (Enterococcus faecalis; Enterococcus faecalis 12-20) was 2 µg/mL (≈ 1.38 µM). For the same compound, the MIC (Enterococcus faecalis; Enterococcus faecalis 12-21) was 1 µg/mL (≈ 0.69 µM), the MIC (Enterococcus faecalis; Enterococcus faecalis 12-22) was 1 µg/mL (≈ 0.69 µM) and the MIC ([2]; Staphylococcus epidermidis MRSE 12-11) was 8 µg/mL (≈ 5.52 µM). For the same compound, the MIC ([2]; Staphylococcus epidermidis MRSE 12-12) was 0.5 µg/mL (≈ 0.345 µM), the MIC ([2]; Staphylococcus epidermidis MRSE 12-15) was 2 µg/mL (≈ 1.38 µM) and the MIC ([2]; Staphylococcus epidermidis MRSE 12-16) was 2 µg/mL (≈ 1.38 µM). The MIC ([2]; Staphylococcus epidermidis MRSE 12-17) was 2 µg/mL (≈ 1.38 µM), the MIC ([2]; Staphylococcus epidermidis MRSE 12-18) was 2 µg/mL (≈ 1.38 µM) and the MIC ([2]; Staphylococcus epidermidis MRSE 12-19) was 2 µg/mL (≈ 1.38 µM). It also gave an MIC ([2]; Staphylococcus epidermidis MRSE 12-20) of 2 µg/mL (≈ 1.38 µM), an MIC ([2]; Staphylococcus epidermidis MRSE 12-21) of 2 µg/mL (≈ 1.38 µM) and an MIC ([2]; Staphylococcus epidermidis MRSE 12-22) of 1 µg/mL (≈ 0.69 µM). For the same compound, the MIC ([3]; Staphylococcus epidermidis MSSE 12-11) was 1 µg/mL (≈ 0.69 µM), the MIC ([3]; Staphylococcus epidermidis MSSE 12-12) was 2 µg/mL (≈ 1.38 µM) and the MIC ([3]; Staphylococcus epidermidis MSSE 12-13) was 1 µg/mL (≈ 0.69 µM). For the same compound, the MIC ([3]; Staphylococcus epidermidis MSSE 12-14) was 2 µg/mL (≈ 1.38 µM), the MIC ([3]; Staphylococcus epidermidis MSSE 12-15) was 2 µg/mL (≈ 1.38 µM) and the MIC ([3]; Staphylococcus epidermidis MSSE 12-16) was 0.5 µg/mL (≈ 0.345 µM). The MIC ([3]; Staphylococcus epidermidis MSSE 12-17) was 0.5 µg/mL (≈ 0.345 µM), the MIC ([3]; Staphylococcus epidermidis MSSE 12-18) was 0.25 µg/mL (≈ 0.173 µM) and the MIC ([3]; Staphylococcus epidermidis MSSE 12-19) was 1 µg/mL (≈ 0.69 µM). For the same compound, the MIC ([3]; Staphylococcus epidermidis MSSE 12-20) was 1 µg/mL (≈ 0.69 µM), the MIC ([4]; Staphylococcus aureus MSSA 12-11) was 1 µg/mL (≈ 0.69 µM) and the MIC ([4]; Staphylococcus aureus MSSA 12-13) was 1 µg/mL (≈ 0.69 µM). It also gave an MIC ([4]; Staphylococcus aureus MSSA 12-14) of 1 µg/mL (≈ 0.69 µM), an MIC ([4]; Staphylococcus aureus MSSA 12-15) of 1 µg/mL (≈ 0.69 µM) and an MIC ([4]; Staphylococcus aureus MSSA 12-16) of 1 µg/mL (≈ 0.69 µM). The MIC ([4]; Staphylococcus aureus MSSA 12-17) was 1 µg/mL (≈ 0.69 µM), the MIC ([4]; Staphylococcus aureus MSSA 12-18) was 1 µg/mL (≈ 0.69 µM) and the MIC ([4]; Staphylococcus aureus MSSA 12-19) was 1 µg/mL (≈ 0.69 µM). For the same compound, the MIC ([4]; Staphylococcus aureus MSSA 12-21) was 1 µg/mL (≈ 0.69 µM), the MIC ([4]; Staphylococcus aureus, MSSA) was 1 µg/mL (≈ 0.69 µM) and the Survival number ([5]; 10 animals) was 10. For the same compound, the “Survial rate (%)” value [5] was 100%, the MIC (Enterococcus faecium; ATCC33186, Enterococcus faecium ATCC 33186) was 1 µg/mL (≈ 0.69 µM) and the MIC (Enterococcus faecium; Enterococcus faecium 12-7) was 0.5 µg/mL (≈ 0.345 µM). For the same compound, the MIC (Enterococcus faecium; Enterococcus faecium 12-8) was 0.5 µg/mL (≈ 0.345 µM), the MIC (Enterococcus faecium; Enterococcus faecium 12-9) was 1 µg/mL (≈ 0.69 µM) and the MIC (Enterococcus faecium; Enterococcus faecium 12-10) was 4 µg/mL (≈ 2.76 µM). The MIC (Enterococcus faecium; Enterococcus faecium 12-11) was 0.5 µg/mL (≈ 0.345 µM), the MIC (Enterococcus faecium; Enterococcus faecium 12-12) was 1 µg/mL (≈ 0.69 µM) and the MIC (Enterococcus faecium; Enterococcus faecium 12-13) was 4 µg/mL (≈ 2.76 µM). For the same compound, the MIC (Enterococcus faecium; Enterococcus faecium 12-14) was 0.5 µg/mL (≈ 0.345 µM), the MIC (Enterococcus faecium; Enterococcus faecium 12-15) was 1 µg/mL (≈ 0.69 µM) and the MIC (Enterococcus faecium; Enterococcus faecium 12-16) was 1 µg/mL (≈ 0.69 µM). The MIC [6] was 1 µg/mL (≈ 0.69 µM) and the MIC (Staphylococcus aureus) was 0.5 µg/mL (≈ 0.345 µM).
